Read-outs that look alike come from different tables or passages of the source.
Tests used:
[1] = test system: Neuraminidase transfected HEK 293 cells
in vitro = settings: human
[2] = test system: influenza virus A/Puerto Rico/8/1934 (H1N1); format: in vivo, BALB/c mice; settings: DNP-KLH immunized mice, 1.5 μmol/kg intranasally one time a day for five days, 100 LD50
[3] = test system: 293NA cells (HEK 293 cells that express NA); format: cell-based
[4] = test system: A/Aichi/2/1968 (HA, NA), x-31b (H3N2) virus; set-up: species or system mice; settings: mouse, in vivo
A/Puerto Rico/8/34 = test system: A/Puerto Rico/8/34; set-up: species or system mice; settings: mouse, in vivo, ip
[5] = test system: A/Aichi/2/1968 (HA, NA), x-31b (H3N2) virus; set-up: species or system mice; settings: mouse, in vivo, ip
[6] = test system: Neuraminidase transfected HEK 293 cells; format: binding

In the case of CCCC(=O)OCN(C(=O)[C@@H](NC(=O)[C@H]1CCCCN1C)C(C)CC)[C@H](C[C@@H](OC(C)=O)c1nc(C(=O)N[C@@H](Cc2ccc(O)cc2)C[C@H](C)C(=O)NNC(=O)OCCSSC[C@H](NC(=O)[C@H](CC(=O)O)NC(=O)[C@@H](N)CNC(=O)CCC(=O)N2Cc3ccccc3-c3c(nnn3CCOCCOCCOCCNC(=O)O[C@@H]([C@@H]3OC(C(=O)O)=C[C@H](NC(=N)N)[C@H]3NC(C)=O)[C@H](O)CO)-c3ccccc32)C(=O)O)cs1)C(C)C (stereo partly drawn), the “reduction of cytotoxicity by blocking neuraminidase binding sites” value [1] is reported as > 30 fold and the EC50 (in vitro) is reported as 5.2 nM.

For CC(=O)N[C@H]1[C@H]([C@H](O)[C@H](O)CO)OC(C(=O)O)=C[C@@H]1N=C(N)N [zanamivir], the “survival (protection from lethal virus challenge)” value [2] was 60%, the “% of killing (LDH)” value [3] was “no killing” and the “protection 14 days post infection” value [4] was “does not provide the same protection”. The “protection 14 days post infection” value (A/Puerto Rico/8/34) was “does not provide the same protection”, the “protection 14 days post infection” value [5] was “does not provide the same protection” and the Kd [6] was ~0.77 nM.

For Tubulysin B hydrazide, the EC50 [1] was 9.9 nM.

Source: US20260144880A1 (priority 2018, published 2026)
